{
  "source": "PubChem BioAssay AID1745844",
  "about": "(Carcinogenic Potency Database (CPDB), 2022)",
  "test_system": "rodent lifetime carcinogenesis bioassay, tumor incidence TD50",
  "test": "chronic cancer bioassays in animals – CPDB, compiled studies (AID 1745844)",
  "details": "mouse, study length 104 weeks",
  "note": "Activity calls are given as the source filed them. No rule for the calls is given here.",
  "data": [
    {"molecule": "ClCCl", "values": [
      {"measurement": "TD50", "setting": "strain B6C3F1, females, inhaled, site: any site (literature study), lesion: several types, types named in the paper, dosed 102 weeks", "result": 1020, "unit": "mg/kg/day"},
      {"measurement": "TD50", "setting": "strain B6C3F1, females, inhaled, site: liver + lung, lesion: hepatocellular adenoma + hepatocellular carcinoma + alveolar/bronchiolar adenoma + alveolar/bronchiolar carcinoma, dosed 102 weeks", "result": 817, "unit": "mg/kg/day"},
      {"measurement": "TD50", "setting": "strain B6C3F1, females, inhaled, site: liver, lesion: hepatocellular adenoma + hepatocellular carcinoma + neoplastic nodule, dosed 102 weeks", "result": 1430, "unit": "mg/kg/day"},
      {"measurement": "TD50", "setting": "strain B6C3F1, females, inhaled, site: liver, lesion: hepatocellular adenoma + hepatocellular carcinoma, dosed 102 weeks", "result": 1430, "unit": "mg/kg/day"},
      {"measurement": "TD50", "setting": "strain B6C3F1, females, inhaled, site: liver, lesion: hepatocellular adenoma, dosed 26 weeks", "result": 2570, "unit": "mg/kg/day"},
      {"measurement": "TD50", "setting": "strain B6C3F1, females, inhaled, site: liver, lesion: hepatocellular adenoma, dosed 52 weeks", "result": 6250, "unit": "mg/kg/day"},
      {"measurement": "TD50", "setting": "strain B6C3F1, females, inhaled, site: liver, lesion: hepatocellular adenoma, dosed 78 weeks", "result": 2780, "unit": "mg/kg/day"},
      {"measurement": "TD50", "setting": "strain B6C3F1, females, inhaled, site: liver, lesion: hepatocellular adenoma, dosed 102 weeks", "result": 3170, "unit": "mg/kg/day"},
      {"measurement": "TD50", "setting": "strain B6C3F1, females, inhaled, site: liver, lesion: hepatocellular adenoma, dosed 104 weeks", "result": 4860, "unit": "mg/kg/day"},
      {"measurement": "TD50", "setting": "strain B6C3F1, females, inhaled, site: liver, lesion: hepatocellular carcinoma, dosed 26 weeks", "result": 6790, "unit": "mg/kg/day"},
      {"measurement": "TD50", "setting": "strain B6C3F1, females, inhaled, site: liver, lesion: hepatocellular carcinoma, dosed 52 weeks", "result": 4960, "unit": "mg/kg/day"},
      {"measurement": "TD50", "setting": "strain B6C3F1, females, inhaled, site: liver, lesion: hepatocellular carcinoma, dosed 78 weeks", "result": 4020, "unit": "mg/kg/day"},
      {"measurement": "TD50", "setting": "strain B6C3F1, females, inhaled, site: liver, lesion: hepatocellular carcinoma, dosed 102 weeks", "result": 1850, "unit": "mg/kg/day"},
      {"measurement": "TD50", "setting": "strain B6C3F1, females, inhaled, site: liver, lesion: hepatocellular carcinoma, dosed 104 weeks", "result": 2750, "unit": "mg/kg/day"},
      {"measurement": "TD50", "setting": "strain B6C3F1, females, inhaled, site: liver, lesion: several types, types named in the paper, dosed 26 weeks", "result": 1840, "unit": "mg/kg/day"},
      {"measurement": "TD50", "setting": "strain B6C3F1, females, inhaled, site: liver, lesion: several types, types named in the paper, dosed 52 weeks", "result": 2850, "unit": "mg/kg/day"},
      {"measurement": "TD50", "setting": "strain B6C3F1, females, inhaled, site: liver, lesion: several types, types named in the paper, dosed 78 weeks", "result": 1730, "unit": "mg/kg/day"},
      {"measurement": "TD50", "setting": "strain B6C3F1, females, inhaled, site: liver, lesion: several types, types named in the paper, dosed 104 weeks", "result": 1740, "unit": "mg/kg/day"},
      {"measurement": "TD50", "setting": "strain B6C3F1, females, inhaled, site: lung, lesion: adenoma, dosed 26 weeks", "result": 3400, "unit": "mg/kg/day"},
      {"measurement": "TD50", "setting": "strain B6C3F1, females, inhaled, site: lung, lesion: adenoma, dosed 52 weeks", "result": 3810, "unit": "mg/kg/day"},
      {"measurement": "TD50", "setting": "strain B6C3F1, females, inhaled, site: lung, lesion: adenoma, dosed 78 weeks", "result": 3590, "unit": "mg/kg/day"},
      {"measurement": "TD50", "setting": "strain B6C3F1, females, inhaled, site: lung, lesion: alveolar/bronchiolar adenoma + alveolar/bronchiolar carcinoma, dosed 102 weeks", "result": 917, "unit": "mg/kg/day"},
      {"measurement": "TD50", "setting": "strain B6C3F1, females, inhaled, site: lung, lesion: alveolar/bronchiolar adenoma, dosed 102 weeks", "result": 1420, "unit": "mg/kg/day"},
      {"measurement": "TD50", "setting": "strain B6C3F1, females, inhaled, site: lung, lesion: alveolar/bronchiolar adenoma, dosed 104 weeks", "result": 5020, "unit": "mg/kg/day"},
      {"measurement": "TD50", "setting": "strain B6C3F1, females, inhaled, site: lung, lesion: alveolar/bronchiolar carcinoma, dosed 102 weeks", "result": 1690, "unit": "mg/kg/day"},
      {"measurement": "TD50", "setting": "strain B6C3F1, females, inhaled, site: lung, lesion: alveolar/bronchiolar carcinoma, dosed 104 weeks", "result": 2670, "unit": "mg/kg/day"},
      {"measurement": "TD50", "setting": "strain B6C3F1, females, inhaled, site: lung, lesion: carcinoma, dosed 26 weeks", "result": 1650, "unit": "mg/kg/day"},
      {"measurement": "TD50", "setting": "strain B6C3F1, females, inhaled, site: lung, lesion: carcinoma, dosed 52 weeks", "result": 952, "unit": "mg/kg/day"},
      {"measurement": "TD50", "setting": "strain B6C3F1, females, inhaled, site: lung, lesion: carcinoma, dosed 78 weeks", "result": 2830, "unit": "mg/kg/day"},
      {"measurement": "TD50", "setting": "strain B6C3F1, females, inhaled, site: lung, lesion: several types, types named in the paper, dosed 26 weeks", "result": 1280, "unit": "mg/kg/day"},
      {"measurement": "TD50", "setting": "strain B6C3F1, females, inhaled, site: lung, lesion: several types, types named in the paper, dosed 52 weeks", "result": 804, "unit": "mg/kg/day"},
      {"measurement": "TD50", "setting": "strain B6C3F1, females, inhaled, site: lung, lesion: several types, types named in the paper, dosed 78 weeks", "result": 1520, "unit": "mg/kg/day"},
      {"measurement": "TD50", "setting": "strain B6C3F1, females, inhaled, site: lung, lesion: several types, types named in the paper, dosed 104 weeks", "result": 1650, "unit": "mg/kg/day"},
      {"measurement": "TD50", "setting": "strain B6C3F1, females, inhaled, site: thyroid gland, lesion: follicular-cell adenoma, dosed 102 weeks", "result": 15800, "unit": "mg/kg/day"},
      {"measurement": "TD50", "setting": "strain B6C3F1, males, in drinking water, site: liver, lesion: hepatocellular adenoma, dosed 104 weeks", "result": "2900 mg/kg/day (inactive)"},
      {"measurement": "TD50", "setting": "strain B6C3F1, males, in drinking water, site: liver, lesion: hepatocellular carcinoma, dosed 104 weeks", "result": "2350 mg/kg/day (inactive)"},
      {"measurement": "TD50", "setting": "strain B6C3F1, males, in drinking water, site: liver, lesion: several types, types named in the paper, dosed 104 weeks", "result": "1310 mg/kg/day (inactive)"},
      {"measurement": "carcinogen call", "setting": "strain B6C3F1, males, in drinking water, site: thyroid gland, lesion: one or several types, types not named, dosed 104 weeks", "result": "negative (inactive)"},
      {"measurement": "TD50", "setting": "strain B6C3F1, males, inhaled, site: all sites, lesion: hemangioma + hemangiosarcoma, dosed 102 weeks", "result": 13200, "unit": "mg/kg/day"},
      {"measurement": "TD50", "setting": "strain B6C3F1, males, inhaled, site: all sites, lesion: hemangiosarcoma, dosed 102 weeks", "result": 12900, "unit": "mg/kg/day"},
      {"measurement": "TD50", "setting": "strain B6C3F1, males, inhaled, site: any site (literature study), lesion: several types, types named in the paper, dosed 102 weeks", "result": 1160, "unit": "mg/kg/day"},
      {"measurement": "TD50", "setting": "strain B6C3F1, males, inhaled, site: liver + lung, lesion: hepatocellular adenoma + hepatocellular carcinoma + alveolar/bronchiolar adenoma + alveolar/bronchiolar carcinoma, dosed 102 weeks", "result": 1090, "unit": "mg/kg/day"},
      {"measurement": "TD50", "setting": "strain B6C3F1, males, inhaled, site: liver, lesion: hepatocellular adenoma + hepatocellular carcinoma + neoplastic nodule, dosed 102 weeks", "result": 1800, "unit": "mg/kg/day"},
      {"measurement": "TD50", "setting": "strain B6C3F1, males, inhaled, site: liver, lesion: hepatocellular adenoma + hepatocellular carcinoma, dosed 102 weeks", "result": 1800, "unit": "mg/kg/day"},
      {"measurement": "TD50", "setting": "strain B6C3F1, males, inhaled, site: liver, lesion: hepatocellular adenoma, dosed 102 weeks", "result": 3480, "unit": "mg/kg/day"},
      {"measurement": "TD50", "setting": "strain B6C3F1, males, inhaled, site: liver, lesion: hepatocellular carcinoma, dosed 102 weeks", "result": 2690, "unit": "mg/kg/day"},
      {"measurement": "TD50", "setting": "strain B6C3F1, males, inhaled, site: lung, lesion: alveolar/bronchiolar adenoma + alveolar/bronchiolar carcinoma, dosed 102 weeks", "result": 920, "unit": "mg/kg/day"},
      {"measurement": "TD50", "setting": "strain B6C3F1, males, inhaled, site: lung, lesion: alveolar/bronchiolar adenoma, dosed 102 weeks", "result": 1680, "unit": "mg/kg/day"},
      {"measurement": "TD50", "setting": "strain B6C3F1, males, inhaled, site: lung, lesion: alveolar/bronchiolar carcinoma, dosed 102 weeks", "result": 1710, "unit": "mg/kg/day"},
      {"measurement": "TD50", "setting": "strain Swiss, females, by gavage, site: lung, lesion: adenoma, dosed 64 weeks", "result": 7050, "unit": "mg/kg/day"},
      {"measurement": "TD50", "setting": "strain Swiss, males, by gavage, site: lung, lesion: adenoma, dosed 64 weeks", "result": 916, "unit": "mg/kg/day"}
    ]}
  ]
}
